The results in this text go back to ChEMBL document CHEMBL1201862, “PubChem BioAssay data set” (2004).

Test in all cases: NCI anticancer screen, dose series, 48 h
Assay [1] relates to Malme-3M.
The subject of assay [2] is KM12.
For assay [3], the system named is SNB-75.
Assay [4] relates to NCI-H522.
The subject of assay [5] is U-251.
For assay [6], the system named is SF-539.
The test system of assay [7] is COLO 205.
Assay [8] concerns HCT-15.
Assay [9] concerns MOLT-4.
Assay [10] deals with IGROV-1.
For assay [11], the system named is ACHN.
Assay [12] concerns SK-MEL-5.
The test system of assay [13] is HCT-116.
Assay [14] has as its system UACC-257.
For assay [15], the system named is UO-31.
In assay [16] the test system is SK-OV-3.
Assay [17] has as its system SR.

Each structure is given as a SMILES string.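 All cell lines were grown in 96-well plates and treated with compound for 48 hours. The concentration for 50% growth inhibition is given as GI50.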 The source made the active and inactive calls. Cut-off read from the data, not from the text of the source: active = GI50 up to about 1.1 µM and inactive = higher. Bounds are passed on as bounds.

On to `O=C(N/C(=C\c1ccc(/C=C(\NC(=O)c2ccccc2)c2nc3ccccc3s2)cc1)c1nc2ccccc2s1)c1ccccc1`, for which the GI50 is 11.9 µM (inactive) in assay [1]; 8.45 µM (inactive) in assay [2]; 5.48 µM (inactive) in assay [3]; 2.13 µM (inactive) in assay [4]; 2.59 µM (inactive) in assay [5]; 2.14 µM (inactive) in assay [6]. For the same compound, the GI50 in assay [7] was 5.12 µM (inactive); in assay [8], 4.6 µM; in [9] it was 4.99 µM (inactive); in assay [10], 3.85 µM (inactive); in assay [11], 4.59 µM (inactive); in assay [12], 4.88 µM (inactive). Further, the GI50 in assay [13] is 8.2 µM (inactive); in assay [14], 5.18 µM (inactive); in assay [15], 2.86 µM (inactive).
For the compound `Cc1c(C#N)c(=O)[nH]c(=O)n1CCN1CCN(C(=O)NCCCCCCNC(=O)N2CCN(CCn3c(C)c(C#N)c(=O)[nH]c3=O)CC2)CC1`, the GI50 in assay [3] is > 100 µM (inactive); in assay [16], > 100 µM (inactive); in assay [5] it was > 100 µM (inactive); in [6], > 100 µM (inactive); in [7], > 100 µM (inactive); in assay [8] it was greater than 100 µM. For the same compound, the GI50 in [9], in assay [10], in assay [11], in assay [12], in assay [13] and in [14] was > 100 µM (inactive) in each case.
Take `N#Cc1cccc(C2C(=O)c3ccc(C(=O)c4ccc5c(c4)C(=O)N(c4ccc(Oc6ccc(N7C(=O)c8ccc(C(=O)c9ccc%10c(c9)C(=O)N(c9cccc(C#N)c9)C%10=O)cc8C7=O)cc6)cc4)C5=O)cc3C2=O)c1` (stereo not drawn): the GI50 in assay [1], in assay [2], in assay [3], in [4], in [5] and in assay [6] was > 100 µM (inactive) each time. Besides, the GI50 in assay [7] is > 100 µM (inactive); in assay [8] it was greater than 100 µM; in [9], > 100 µM (inactive); in assay [10], > 100 µM (inactive); in assay [11], > 100 µM (inactive); in assay [12] it was > 100 µM (inactive). In addition, the GI50 in [13], in assay [14] and in assay [15] was > 100 µM (inactive) throughout.
Take `CCCCNC(=S)Nn1c(-c2ccccc2)nc2ccccc2c1=O`: the GI50 in assay [1] was > 100 µM (inactive); in assay [2] it was > 100 µM (inactive); in assay [3] it was 41.7 µM (inactive); in [16], > 100 µM (inactive); in [4], 86.3 µM (inactive); in assay [5] it was > 100 µM (inactive). For the same compound, the GI50 is > 100 µM (inactive) in assay [6]; > 100 µM (inactive) in assay [7]; greater than 100 µM in assay [8]; 49.9 µM (inactive) in [9]; > 100 µM (inactive) in [10]; > 100 µM (inactive) in assay [11]. Besides, the GI50 is > 100 µM (inactive) in [12], > 100 µM (inactive) in assay [13], > 100 µM (inactive) in assay [14] and 76.9 µM (inactive) in [15].
As for `N[C@H](C(=O)O)[C@@H](Cl)CC(=O)O`, the GI50 in [1], in assay [2], in assay [3], in assay [16], in [4] and in [5] was > 100 µM (inactive) throughout. The GI50 in assay [6] was > 100 µM (inactive); in assay [7] it was > 100 µM (inactive); in assay [8], greater than 100 µM; in assay [9] it was > 100 µM (inactive); in [10], > 100 µM (inactive); in [11], > 100 µM (inactive). The GI50 in [12], in [13], in [14] and in assay [15] was > 100 µM (inactive) each time.
Turning to `Cc1cc(C)c(S(=O)(=O)ONC(=O)OC(C)(C)C)c(C)c1`, the GI50 in assay [1], in assay [2], in assay [3], in [16], in assay [4] and in assay [5] was > 100 µM (inactive) each time. For the same compound, the GI50 is > 100 µM (inactive) in assay [6]; > 100 µM (inactive) in assay [7]; greater than 100 µM in assay [8]; > 100 µM (inactive) in assay [9]; > 100 µM (inactive) in [10]; > 100 µM (inactive) in assay [11]. The GI50 in assay [12], in [13], in [14] and in assay [15] was > 100 µM (inactive) throughout.
Take `Nn1c(-c2ccccc2)nc2ccc(Br)cc2c1=O`: the GI50 is 15.1 µM (inactive) in assay [1]; 86.1 µM (inactive) in [2]; > 100 µM (inactive) in assay [3]; 61.5 µM (inactive) in assay [16]; 33.7 µM (inactive) in assay [4]; 41.4 µM (inactive) in assay [5]. For the same compound, the GI50 was 53.8 µM (inactive) in assay [6]; 32.1 µM (inactive) in assay [7]; 40.8 µM in assay [8]; 17.9 µM (inactive) in assay [9]; 44.8 µM (inactive) in [10]; 34.8 µM (inactive) in [11]. The GI50 in assay [12] was 53.1 µM (inactive); in assay [13] it was 35.3 µM (inactive); in assay [14], > 100 µM (inactive); in assay [15], 24.4 µM (inactive).
As to `NC(=O)C(=O)C1CCC2=C(Sc3ccccc3N2)C1=O` (stereo not drawn), the GI50 in assay [1] is > 100 µM (inactive); in assay [2], > 100 µM (inactive); in assay [3], > 100 µM (inactive); in [16], > 100 µM (inactive); in assay [4], 37.5 µM (inactive); in assay [5] it was > 100 µM (inactive). In addition, the GI50 in [6] is > 100 µM (inactive); in assay [7], > 100 µM (inactive); in assay [8], greater than 100 µM; in assay [9] it was > 100 µM (inactive); in assay [10], > 100 µM (inactive); in assay [11], > 100 µM (inactive). The GI50 in [12], in [13], in assay [14] and in assay [15] was > 100 µM (inactive) in each case.
For the compound `COC(=O)C1(C(=O)OC)CC(=O)c2cc3c(cc2-c2c(cc(OC)c(OC)c2OC)C1)OCO3`, the GI50 was > 211 µM (inactive) in assay [1]; 71.6 µM (inactive) in assay [2]; > 211 µM (inactive) in [16]; 96.4 µM (inactive) in [4]; > 211 µM (inactive) in assay [5]; 70.3 µM (inactive) in [17]. The GI50 was > 211 µM (inactive) in assay [6]; 183 µM (inactive) in [7]; 204 µM in [8]; 83.6 µM (inactive) in [9]; > 211 µM (inactive) in assay [10]; > 211 µM (inactive) in assay [11]. Besides, the GI50 in assay [12] was 123 µM (inactive); in assay [13] it was 111 µM (inactive); in [14], 139 µM (inactive).
On to `Cc1cccc(-c2nnc3s/c(=C\c4ccc(N(C)C)cc4)c(=O)n23)c1`, for which the GI50 in [1], in [2], in assay [3], in [16], in assay [4] and in assay [5] was > 100 µM (inactive) each time. For the same compound, the GI50 in assay [6], in assay [7], in assay [9], in [10], in [11] and in assay [12] was > 100 µM (inactive) throughout. For the same compound, the GI50 in assay [13], in [14] and in assay [15] was > 100 µM (inactive) in each case.
Consider `COc1ccccc1NC(=O)C1=C(C)NC(C)=C(C(=O)Nc2ccccc2OC)C1c1ccc(C)cc1`, for which the GI50 is > 100 µM (inactive) in assay [1]; 43 µM (inactive) in assay [2]; 58.5 µM (inactive) in [3]; > 100 µM (inactive) in assay [16]; 60.7 µM (inactive) in assay [4]; > 100 µM (inactive) in assay [5]. The GI50 was > 100 µM (inactive) in assay [6]; 12.6 µM (inactive) in assay [7]; 33.1 µM in assay [8]; 58.7 µM (inactive) in [10]; 17.3 µM (inactive) in assay [11]; 16.9 µM (inactive) in [12]. Further, the GI50 is 29.9 µM (inactive) in assay [13], 51.5 µM (inactive) in assay [14] and 43 µM (inactive) in assay [15].
`O=C(Oc1ccc2c(-c3ccccc3)c(C(=O)Nc3ccc(Cl)cc3)c(=O)oc2c1)c1ccccc1`: the GI50 is > 100 µM (inactive) in [1]; > 100 µM (inactive) in assay [2]; 52.2 µM (inactive) in assay [3]; > 100 µM (inactive) in [16]; > 100 µM (inactive) in assay [4]; > 100 µM (inactive) in assay [5]. The GI50 is > 100 µM (inactive) in [6]; > 100 µM (inactive) in [7]; greater than 100 µM in [8]; 74.1 µM (inactive) in assay [9]; > 100 µM (inactive) in assay [10]; > 100 µM (inactive) in assay [11]. Moreover, the GI50 in assay [12], in assay [13], in [14] and in [15] was > 100 µM (inactive) each time.
On to `COC(=O)C1=C(C(=O)OC)C(C(=O)OC)C(C(=O)OC)=C1C(=O)OC`, for which the GI50 in [1], in assay [2], in [3], in assay [16], in assay [4] and in [5] was > 100 µM (inactive) in each case. The GI50 in assay [6] is > 100 µM (inactive); in [7], > 100 µM (inactive); in assay [8], greater than 100 µM; in [9] it was > 100 µM (inactive); in assay [10] it was > 100 µM (inactive); in assay [11], > 100 µM (inactive). Further, the GI50 in [12], in assay [14] and in assay [15] was > 100 µM (inactive) each time.
